Counter-ions that a name gives are not always drawn. Like-named read-outs stand apart in the source and are kept apart here.
Columns and labels:
[1] = tested on: DU4475 cells; experiment: Cell-based assay: anti-proliferative activity, Cell Counting Kit-8, 72 hours (DU4475)
[2] = tested on: HT-1197 cells; experiment: Cell-based assay: anti-proliferative activity, Cell Counting Kit-8, 72 hours (HT-1197, negative control without MELK expression); details: HT1197 cells (negative control), 72 hours
Summary of the method: (§1)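 Cellular growth is read by CCK-8 colorimetric kit 72 h after inhibitor addition to seeded cells, and IC50 values are derived from the resulting data; MELK protein levels in these lines are checked beforehand by immunoblotting whole crude lysate.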

[3] = tested on: T47D cells; experiment: Cell-based assay: anti-proliferative activity, Cell Counting Kit-8, 72 hours (T47D)
Summary of the method: as §1

[4] = tested on: A549 cells; experiment: Cell-based assay: anti-proliferative activity, Cell Counting Kit-8, 72 hours (A549); details: 72 hours
Summary of the method: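 A549 cells were seeded in 96-well plates and exposed to candidate inhibitors for 72 hours. Cell growth was then measured with Cell Counting Kit-8, and IC50 values were calculated from the resulting growth data.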

[5] = target: MELK (Homo sapiens, UniProt Q14680); experiment: Kinase assay: MELK activity, phosphorylation of FITC-labeled histone H3 peptide measured by IMAP fluorescence polarization; assay type: biochemical
MELK, sequence (Q14680 whole entry, looked up): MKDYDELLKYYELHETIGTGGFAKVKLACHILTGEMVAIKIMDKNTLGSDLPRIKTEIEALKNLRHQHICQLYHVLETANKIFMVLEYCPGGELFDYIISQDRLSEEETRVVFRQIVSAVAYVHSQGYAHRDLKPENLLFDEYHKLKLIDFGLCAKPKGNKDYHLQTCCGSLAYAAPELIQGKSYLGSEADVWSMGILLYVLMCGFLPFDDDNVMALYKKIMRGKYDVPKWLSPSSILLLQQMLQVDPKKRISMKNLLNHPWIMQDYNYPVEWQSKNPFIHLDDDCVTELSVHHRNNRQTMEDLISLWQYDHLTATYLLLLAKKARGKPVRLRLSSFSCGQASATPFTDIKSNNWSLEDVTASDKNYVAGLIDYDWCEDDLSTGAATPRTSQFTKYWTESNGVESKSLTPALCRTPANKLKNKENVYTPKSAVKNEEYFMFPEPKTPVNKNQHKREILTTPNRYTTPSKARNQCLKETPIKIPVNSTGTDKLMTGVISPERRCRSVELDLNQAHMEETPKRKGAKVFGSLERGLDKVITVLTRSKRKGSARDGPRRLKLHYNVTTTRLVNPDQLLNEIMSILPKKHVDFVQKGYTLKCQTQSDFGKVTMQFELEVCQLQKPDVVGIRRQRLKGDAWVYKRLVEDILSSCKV
Summary of the method: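 FP readout: FITC-histone H3 peptide phosphorylation, read 0.5 h (RT) after stopping with 3x volume of IMAP progressive binding solution. Final DMSO 1%.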

[6] = read-out: IC50 (μM) (kinase assay)
[7] = hydrochloride, read-out: IC50 (μM) (kinase assay)

SMILES | IC50 ([1]; Homo sapiens, DU-4475, 72 h) [µM] | IC50 ([2]; Homo sapiens, HT1197, 72 h) [µM] | IC50 ([3]; Homo sapiens, T47D, 72 h) [µM] | IC50 ([4]; Homo sapiens, A549, 72 h) [µM] | IC50 [5, 6] [µM] | IC50 [5] [µM] | IC50 ([1]; hydrochloride) [µM] | IC50 ([2]; hydrochloride) [µM] | IC50 ([3]; 72 hours, hydrochloride) [µM] | IC50 ([4]; hydrochloride) [µM] | IC50 [5, 7] [µM]
COc1cc(-c2ccc3ncc(C(=O)C4CC4)c(Nc4ccc(N5CCC(N)CC5)nc4)c3c2)cc(Cl)c1O [Example 550, (4-(6-(4-aminopiperidin-1-yl)pyridin-3-ylamino)-6-(3-chloro-4-hydroxy-5-methoxyphenyl)quinolin-3-yl)(cyclopropyl)methanone] | 1 | 2.7 | 0.1 | 0.58 | 0.0057 | – | – | – | – | – | –
COc1cc(-c2ccc3ncc(C(=O)C4CC4)c(Nc4cnc(N5CCC(N)CC5)nc4)c3c2)cc(Cl)c1O [Example 553, (4-(2-(4-aminopiperidin-1-yl)pyrimidin-5-ylamino)-6-(3-chloro-4-hydroxy-5-methoxyphenyl)quinolin-3-yl)(cyclopropyl)methanone] | 0.95 | 2.1 | 0.12 | 0.39 | 0.0056 | – | – | – | – | – | –
COc1cc(-c2ccc3ncc(C(=O)C4CC4)c(Nc4ccc(N5CCCC(N)C5)nc4)c3c2)cc(Cl)c1O (centres unmarked) [Example 554, (4-(6-(3-aminopiperidin-1-yl)pyridin-3-ylamino)-6-(3-chloro-4-hydroxy-5-methoxyphenyl)quinolin-3-yl)(cyclopropyl)methanone] | 0.025 | 1.9 | 0.068 | 0.08 | 0.0031 | – | – | – | – | – | –
NC1CCCN(c2ccc(Nc3c(C(=O)C4CC4)cnc4ccc(-c5cc(Cl)c(O)c(Cl)c5)cc34)cn2)C1 (centres unmarked) [Example 556, (4-(6-(3-aminopiperidin-1-yl)pyridin-3-ylamino)-6-(3,5-dichloro-4-hydroxyphenyl)quinolin-3-yl)(cyclopropyl)methanone] | 0.016 | 0.96 | 0.03 | 0.023 | 0.0044 | – | – | – | – | – | –
NC1CCN(c2ccc(Nc3c(C(=O)C4CC4)cnc4ccc(-c5cc(F)c(O)c(Cl)c5)cc34)cn2)CC1 [Example 557, (4-(6-(4-aminopiperidin-1-yl)pyridin-3-ylamino)-6-(3-chloro-5-fluoro-4-hydroxyphenyl)quinolin-3-yl)(cyclopropyl)methanone] | 0.18 | 3.1 | 0.11 | 0.52 | – | 0.0056 | – | – | – | – | –
CN[C@H]1CC[C@H](Nc2c(C(C)=O)cnc3ccc(-c4cc(Cl)c(O)c(Cl)c4)cc23)CC1 [Example 558] | 0.043 | 10 | 0.094 | 0.32 | 0.0025 | – | – | – | – | – | –
O=C(c1cnc2cc(F)c(-c3cc(Cl)c(O)c(Cl)c3)cc2c1Nc1ccc(N2CCNCC2)nc1)C1CC1 [Example 559, cyclopropyl(6-(3,5-dichloro-4-hydroxyphenyl)-7-fluoro-4-(6-(piperazin-1-yl)pyridin-3-ylamino)quinolin-3-yl)methanone] | 0.35 | 3.2 | 0.46 | 0.59 | 0.01 | – | – | – | – | – | –
NC1CCCN(c2ccc(Nc3c(C(=O)C4CC4)cnc4ccc(-c5cc(F)c(O)c(Cl)c5)cc34)cn2)C1 (centres unmarked) [Example 561, (4-(6-(3-aminopiperidin-1-yl)pyridin-3-ylamino)-6-(3-chloro-5-fluoro-4-hydroxyphenyl)quinolin-3-yl)(cyclopropyl)methanone] | 0.0066 | 0.3 | 0.0055 | 0.008 | 0.0027 | – | – | – | – | – | –
NC1CCCN(c2ccc(Nc3c(C(=O)C4CC4)cnc4ccc(-c5cc(F)c(O)c(Cl)c5)cc34)cn2)C1 (centres unmarked) [Example 562, (4-(6-(3-aminopiperidin-1-yl)pyridin-3-ylamino)-6-(3-chloro-5-fluoro-4-hydroxyphenyl)quinolin-3-yl)(cyclopropyl)methanone hydrochloride] | – | – | – | – | – | – | 0.0089 | 0.19 | 0.0064 | 0.012 | 0.0017
NC1CCN(c2ncc(Nc3c(C(=O)C4CC4)cnc4ccc(-c5cc(Cl)c(O)c(Cl)c5)cc34)cn2)CC1 [Example 566, (4-(2-(4-aminopiperidin-1-yl)pyrimidin-5-ylamino)-6-(3,5-dichloro-4-hydroxyphenyl)quinolin-3-yl)(cyclopropyl)methanone] | 0.13 | 2.6 | 0.11 | 0.4 | 0.003 | – | – | – | – | – | –
NC1CCN(c2ncc(Nc3c(C(=O)C4CC4)cnc4ccc(-c5cc(F)c(O)c(Cl)c5)cc34)cn2)CC1 [Example 567, (4-(2-(4-aminopiperidin-1-yl)pyrimidin-5-ylamino)-6-(3-chloro-5-fluoro-4-hydroxyphenyl)quinolin-3-yl)(cyclopropyl)methanone] | 0.18 | 1.9 | 0.076 | 0.34 | 0.0083 | – | – | – | – | – | –
COc1cc(-c2ccc3ncc(C(=O)C4CC4)c(Nc4ccc(N5CCC(N)C5)nc4)c3c2)cc(Cl)c1O (centres unmarked) [Example 568, (4-(6-(3-aminopyrrolidin-1-yl)pyridin-3-ylamino)-6-(3-chloro-4-hydroxy-5-methoxyphenyl)quinolin-3-yl)(cyclopropyl)methanone] | 0.045 | 0.62 | 0.057 | 0.082 | 0.0027 | – | – | – | – | – | –
COc1cc(-c2ccc3ncc(C(=O)C4CC4)c(N[C@H]4CC[C@H](CN5CC[C@@H](F)C5)CC4)c3c2)cc(Cl)c1O [Example 569] | 0.41 | 1.8 | 0.62 | 0.4 | 0.011 | – | – | – | – | – | –
O=C(c1cnc2ccc(-c3cc(F)c(O)c(Cl)c3)cc2c1N[C@H]1CC[C@H](CN2CC[C@@H](F)C2)CC1)C1CC1 [Example 570, (6-(3-chloro-5-fluoro-4-hydroxyphenyl)-4-((trans-4-(((R)-3-fluoropyrrolidin-1-yl)methyl)cyclohexyl)amino)quinolin-3-yl)(cyclopropyl)methanone] | 0.089 | 0.16 | 0.14 | 0.13 | 0.016 | – | – | – | – | – | –
O=C(c1cnc2ccc(-c3cc(Cl)c(O)c(Cl)c3)cc2c1N[C@H]1CC[C@H](CN2CC[C@@H](F)C2)CC1)C1CC1 [Example 571, cyclopropyl(6-(3,5-dichloro-4-hydroxyphenyl)-4-((trans-4-(((R)-3-fluoropyrrolidin)methyl)cyclohexyl)amino)quinolin-3-yl)methanon] | 0.08 | 0.39 | 0.18 | 0.16 | 0.0043 | – | – | – | – | – | –
NC1CCN(c2ncc(Nc3c(C(=O)C4CC4)cnc4ccc(-c5cc(F)c(O)c(Cl)c5)cc34)cn2)C1 (centres unmarked) [Example 572, (4-(2-(3-aminopyrrolidin-1-yl)pyrimidin-5-ylamino)-6-(3-chloro-5-fluoro-4-hydroxyphenyl)quinolin-3-yl)(cyclopropyl)methanone] | 0.011 | 0.37 | 0.0076 | 0.03 | 0.003 | – | – | – | – | – | –
NC1CCN(c2ncc(Nc3c(C(=O)C4CC4)cnc4ccc(-c5cc(F)c(O)c(Cl)c5)cc34)cn2)C1 (centres unmarked) [Example 573, (4-(2-(3-aminopyrrolidin-1-yl)pyrimidin-5-ylamino)-6-(3-chloro-5-fluoro-4-hydroxyphenyl)quinolin-3-yl)(cyclopropyl)methanone hydrochloride] | – | – | – | – | – | – | 0.013 | 0.57 | 0.0072 | 0.032 | 0.004
NC1CCN(c2ncc(Nc3c(C(=O)C4CC4)cnc4ccc(-c5cc(Cl)c(O)c(Cl)c5)cc34)cn2)C1 (centres unmarked) [Example 574, (4-(2-(3-aminopyrrolidin-1-yl)pyrimidin-5-ylamino)-6-(3,5-dichloro-4-hydroxyphenyl)quinolin-3-yl)(cyclopropyl)methanone] | 0.021 | 1.4 | 0.031 | 0.087 | 0.0018 | – | – | – | – | – | –
NC1CCN(c2ccc(Nc3c(C(=O)C4CC4)cnc4ccc(-c5cc(Cl)c(O)c(Cl)c5)cc34)cn2)C1 (centres unmarked) [Example 575, (4-(6-(3-aminopyrrolidin-1-yl)pyridin-3-ylamino)-6-(3,5-dichloro-4-hydroxyphenyl)quinolin-3-yl)(cyclopropyl)methanone] | 0.029 | 1.2 | 0.028 | 0.068 | 0.0031 | – | – | – | – | – | –
NC1CCN(c2ccc(Nc3c(C(=O)C4CC4)cnc4ccc(-c5cc(F)c(O)c(Cl)c5)cc34)cn2)C1 (centres unmarked) [Example 576, (4-(6-(3-aminopyrrolidin-1-yl)pyridin-3-ylamino)-6-(3-chloro-5-fluoro-4-hydroxyphenyl)quinolin-3-yl)(cyclopropyl)methanone] | 0.012 | 0.53 | 0.0094 | 0.026 | 0.0019 | – | – | – | – | – | –
NC1CCN(c2ccc(Nc3c(C(=O)C4CC4)cnc4ccc(-c5cc(F)c(O)c(Cl)c5)cc34)cn2)C1 (centres unmarked) [Example 577, (4-(6-(3-aminopyrrolidin-1-yl)pyridin-3-ylamino)-6-(3-chloro-5-fluoro-4-hydroxyphenyl)quinolin-3-yl)(cyclopropyl)methanone hydrochloride] | – | – | – | – | – | – | 0.014 | 0.52 | 0.0065 | 0.029 | 0.0037
COc1cc(-c2cc3c(Nc4ccc(N5CCNCC5)nc4)c(C(=O)C4CC4)cnc3cc2F)cc(Cl)c1O [Example 578, (6-(3-chloro-4-hydroxy-5-methoxyphenyl)-7-fluoro-4-(6-(piperazin-1-yl)pyridin-3-ylamino)quinolin-3-yl)(cyclopropyl)methanone] | 2.8 | 8 | 3 | 1.9 | 0.021 | – | – | – | – | – | –
